Laboratory results reported in patent US11427549B2, “Pyrimidinyloxy benzo-fused compounds as herbicides” (FMC Corporation, priority 2017, dated 2022).

Tests used:
[1] = tested on: rice (Oryza sativa); experiment: Test B flooded paddy test, rice; conditions: Flood, 250 g ai/ha, applied to paddy water, 2-leaf stage, visually evaluated after 13 to 15 days
[2] = tested on: pigweed (Amaranthus retroflexus); experiment: Test A preemergence, pigweed; type: in vivo; conditions: 0 to 100 scale (0 no effect, 100 complete control)
Excerpt: (§1) Seeds of plant species selected from barnyardgrass (Echinochloa crus-galli), kochia (Kochia scoparia), ragweed (common ragweed, Ambrosia elatior), ryegrass, Italian (Italian ryegrass, Lolium multiflorum), foxtail, giant (giant foxtail, Setaria faberii), foxtail, green (green foxtail, Setaria viridis) and pigweed (Amaranthus retroflexus) were planted into a blend of loam soil and sand and treated preemergence with a directed soil spray using test chemicals formulated in a non-phytotoxic solvent mixture which included a surfactant.
(§2) At the same time, plants selected from these weed species and also wheat (Triticum aestivum), corn (Zea mays), blackgrass (Alopecurus myosuroides), and galium (catchweed bedstraw, Galium aparine) were planted in pots containing the same blend of loam soil and sand and treated with postemergence applications of test chemicals formulated in the same manner. Plants ranged in height from 2 to 10 cm and were in the one- to two-leaf stage for the postemergence treatment. Treated plants and untreated controls were maintained in a greenhouse for approximately 10 days, after which time all treated plants were compared to untreated controls and visually evaluated for injury. […] A dash (-) response means no test result.

[3] = tested on: barnyardgrass (Echinochloa crus-galli); experiment: Test B flooded paddy test, barnyardgrass; conditions: Flood, 250 g ai/ha, applied to paddy water, 2-leaf stage, visually evaluated after 13 to 15 days
[4] = tested on: foxtail, green (green foxtail, Setaria viridis); experiment: Test A preemergence, foxtail, green; type: in vivo; conditions: 0 to 100 scale (0 no effect, 100 complete control)
Excerpt: as §1, §2

[5] = tested on: ryegrass, Italian (Italian ryegrass, Lolium multiflorum); experiment: Test A preemergence, ryegrass, Italian; type: in vivo; conditions: 0 to 100 scale (0 no effect, 100 complete control)
Excerpt: as §1, §2

[6] = tested on: galium (catchweed bedstraw, Galium aparine); experiment: Test A postemergence, galium; type: in vivo; conditions: 0 to 100 scale (0 no effect, 100 complete control)
Excerpt: as §1, §2

[7] = tested on: blackgrass (Alopecurus myosuroides); experiment: Test A postemergence, blackgrass; type: in vivo; conditions: 0 to 100 scale (0 no effect, 100 complete control)
Excerpt: as §1, §2

[8] = tested on: wheat (Triticum aestivum); experiment: Test A postemergence, wheat; type: in vivo; conditions: 0 to 100 scale (0 no effect, 100 complete control)
Excerpt: as §1, §2

[9] = tested on: corn (Zea mays); experiment: Test A postemergence, corn; type: in vivo; conditions: 0 to 100 scale (0 no effect, 100 complete control)
Excerpt: as §1, §2

[10] = tested on: ragweed (common ragweed, Ambrosia elatior); experiment: Test A postemergence, ragweed; type: in vivo; conditions: 0 to 100 scale (0 no effect, 100 complete control)
Excerpt: as §1, §2

[11] = tested on: barnyardgrass (Echinochloa crus-galli); experiment: Test A preemergence, barnyardgrass; type: in vivo; conditions: 0 to 100 scale (0 no effect, 100 complete control)
Excerpt: as §1, §2

[12] = tested on: ryegrass, Italian (Italian ryegrass, Lolium multiflorum); experiment: Test A postemergence, ryegrass, Italian; type: in vivo; conditions: 0 to 100 scale (0 no effect, 100 complete control)
Excerpt: as §1, §2

[13] = tested on: kochia (Kochia scoparia); experiment: Test A postemergence, kochia; type: in vivo; conditions: 0 to 100 scale (0 no effect, 100 complete control)
Excerpt: as §1, §2

[14] = tested on: ragweed (common ragweed, Ambrosia elatior); experiment: Test A preemergence, ragweed; type: in vivo; conditions: 0 to 100 scale (0 no effect, 100 complete control)
Excerpt: as §1, §2

[15] = tested on: ducksalad (Heteranthera limosa); experiment: Test B flooded paddy test, ducksalad; conditions: Flood, 250 g ai/ha, applied to paddy water, 2-leaf stage, visually evaluated after 13 to 15 days
[16] = tested on: kochia (Kochia scoparia); experiment: Test A preemergence, kochia; type: in vivo; conditions: 0 to 100 scale (0 no effect, 100 complete control)
Excerpt: as §1, §2

[17] = tested on: foxtail, green (green foxtail, Setaria viridis); experiment: Test A postemergence, foxtail, green; type: in vivo; conditions: 0 to 100 scale (0 no effect, 100 complete control)
Excerpt: as §1, §2

[18] = tested on: barnyardgrass (Echinochloa crus-galli); experiment: Test A postemergence, barnyardgrass; type: in vivo; conditions: 0 to 100 scale (0 no effect, 100 complete control)
Excerpt: as §1, §2

[19] = tested on: pigweed (Amaranthus retroflexus); experiment: Test A postemergence, pigweed; type: in vivo; conditions: 0 to 100 scale (0 no effect, 100 complete control)
Excerpt: as §1, §2

[20] = tested on: foxtail, giant (giant foxtail, Setaria faberii); experiment: Test A preemergence, foxtail, giant; type: in vivo; conditions: 0 to 100 scale (0 no effect, 100 complete control)
Excerpt: as §1, §2

[21] = tested on: foxtail, giant (giant foxtail, Setaria faberii); experiment: Test A postemergence, foxtail, giant; type: in vivo; conditions: 0 to 100 scale (0 no effect, 100 complete control)
Excerpt: as §1, §2

| Compound | Plant response rating, Rice (0 to 100 scale, 0 is no effect, 100 is complete control) [1] | Plant response rating, Pigweed ([2]; 125 g ai/ha) | Plant response rating, Barnyardgrass (0 to 100 scale, 0 is no effect, 100 is complete control) [3] | Plant response rating, Foxtail, Green ([4]; 125 g ai/ha) | Plant response rating, Ryegrass, Italian ([5]; 125 g ai/ha) | Plant response rating, Galium ([6]; 125 g ai/ha) | Plant response rating, Blackgrass ([7]; 125 g ai/ha) | Plant response rating, Wheat ([8]; 125 g ai/ha) | Plant response rating, Corn ([9]; 125 g ai/ha) | Plant response rating, Ragweed ([10]; 125 g ai/ha) | Plant response rating, Barnyardgrass ([11]; 125 g ai/ha) | Plant response rating, Ryegrass, Italian ([12]; 125 g ai/ha) | Plant response rating, Kochia ([13]; 125 g ai/ha) | Plant response rating, Ragweed ([14]; 125 g ai/ha) | Plant response rating, Ducksalad (0 to 100 scale, 0 is no effect, 100 is complete control) [15] | Plant response rating, Kochia ([16]; 125 g ai/ha) | Plant response rating, Foxtail, Green ([17]; 125 g ai/ha) | Plant response rating, Barnyardgrass ([18]; 125 g ai/ha) | Plant response rating, Pigweed ([19]; 125 g ai/ha) | Plant response rating, Pigweed ([2]; 31 g ai/ha) | further results |
| --- | --- | --- | --- | --- | --- | --- | --- | --- | --- | --- | --- | --- | --- | --- | --- | --- | --- | --- | --- | --- | --- |
| 5-Chloro-2-[[1-oxido-3-(4,4,4-trifluorobutyl)-3H-2,1-benzoxathiol-4-yl]oxy]pyrimidine [Compound 15] | 0 | 70 | 0 | 50 | 0 | 80 | 30 | 10 | 20 | 30 | 30 | 20 | 80 | 0 | 0 | 20 | 20 | 30 | 70 |  | Plant response rating, Pigweed ([2]; 500 g ai/ha): 100; Plant response rating, Foxtail, Green ([4]; 500 g ai/ha): 100; Plant response rating, Ryegrass, Italian ([5]; 500 g ai/ha): 30; Plant response rating, Galium ([6]; 500 g ai/ha): 80; Plant response rating, Blackgrass ([7]; 500 g ai/ha): 90; Plant response rating, Wheat ([8]; 500 g ai/ha): 30; Plant response rating, Corn ([9]; 500 g ai/ha): 40; Plant response rating, Ragweed ([10]; 500 g ai/ha): 60; Plant response rating, Barnyardgrass ([11]; 500 g ai/ha): 70; Plant response rating, Ryegrass, Italian ([12]; 500 g ai/ha): 90; Plant response rating, Kochia ([13]; 500 g ai/ha): 90; Plant response rating, Ragweed ([14]; 500 g ai/ha): 20; Plant response rating, Kochia ([16]; 500 g ai/ha): 80; Plant response rating, Foxtail, Green ([17]; 500 g ai/ha): 80; Plant response rating, Barnyardgrass ([18]; 500 g ai/ha): 60; Plant response rating, Pigweed ([19]; 500 g ai/ha): 90 |
| O=C1CC(CCCC(F)(F)F)c2c(Oc3ncc(Cl)cn3)cccc21 (stereo not shown) [Compound 6, 4-[(5-Chloropyrimidin-2-pyrimidinyl)oxy]-2,3-dihydro-3-(4,4,4-trifluorobutyl)-1H-inden-1-one] | 20 | 100 | 40 | 100 | 10 | 90 | 30 | 10 | 20 | 0 | 90 | 30 | 60 | 0 | 100 | 80 | 40 | 40 | 100 | 0 | Plant response rating, Foxtail, Green ([4]; 31 g ai/ha): 20; Plant response rating, Ryegrass, Italian ([5]; 31 g ai/ha): 0; Plant response rating, Galium ([6]; 31 g ai/ha): 60; Plant response rating, Blackgrass ([7]; 31 g ai/ha): 10; Plant response rating, Wheat ([8]; 31 g ai/ha): 0; Plant response rating, Corn ([9]; 31 g ai/ha): 0; Plant response rating, Ragweed ([10]; 31 g ai/ha): 0; Plant response rating, Barnyardgrass ([11]; 31 g ai/ha): 0; Plant response rating, Ryegrass, Italian ([12]; 31 g ai/ha): 0; Plant response rating, Kochia ([13]; 31 g ai/ha): 10; Plant response rating, Ragweed ([14]; 31 g ai/ha): 0; Plant response rating, Kochia ([16]; 31 g ai/ha): 0; Plant response rating, Foxtail, Green ([17]; 31 g ai/ha): 10; Plant response rating, Barnyardgrass ([18]; 31 g ai/ha): 10; Plant response rating, Pigweed ([19]; 31 g ai/ha): 90 |
| O=C1OCC(CCCC(F)(F)F)c2c(Oc3ncc(Cl)cn3)cccc21 (stereo not shown) [Compound 16, 5-[(5-Chloro-2-pyrimidinyl)oxy]-3,4-dihydro-4-(4,4,4,-trifluorobutyl)-1H-2benzopyran-1-one] | 15 | 100 | 75 |  | 70 | 100 | 90 | 50 | 40 | 50 | 100 | 80 | 100 |  | 100 | 100 |  | 80 | 100 | 100 | Plant response rating, Ryegrass, Italian ([5]; 31 g ai/ha): 10; Plant response rating, Galium ([6]; 31 g ai/ha): 90; Plant response rating, Blackgrass ([7]; 31 g ai/ha): 80; Plant response rating, Wheat ([8]; 31 g ai/ha): 50; Plant response rating, Corn ([9]; 31 g ai/ha): 0; Plant response rating, Ragweed ([10]; 31 g ai/ha): 10; Plant response rating, Barnyardgrass ([11]; 31 g ai/ha): 60; Plant response rating, Foxtail, Giant ([20]; 31 g ai/ha): 80; Plant response rating, Foxtail, Giant ([20]; 125 g ai/ha): 100; Plant response rating, Ryegrass, Italian ([12]; 31 g ai/ha): 20; Plant response rating, Foxtail, Giant ([21]; 31 g ai/ha): 30; Plant response rating, Foxtail, Giant ([21]; 125 g ai/ha): 90; Plant response rating, Kochia ([13]; 31 g ai/ha): 80; Plant response rating, Kochia ([16]; 31 g ai/ha): 10; Plant response rating, Barnyardgrass ([18]; 31 g ai/ha): 30; Plant response rating, Pigweed ([19]; 31 g ai/ha): 80 |
